Patent US6617438B1, “Oligoribonucleotides with enzymatic activity” (Sirna Therapeutics, Inc., priority 1997, dated 2003)
Where “and” joins values, the source holds several entries; their conditions need not be identical. Identical values can stand only once. Like-named read-outs stand apart in the source and are kept apart here. Marks after values point to notes of the source that are not given here.

Legend:
[1] = biological target: T1, Bacteriophage T7 RNA polymerase (wild type) (Escherichia phage T7, UniProt P00573); test: biochemical; type: biochemical; conditions: for activity at 2000 µM: read-out: % ribo control
T1 construct: purchased Boehringer Mannheim
Experimental: Bacteriophage T7 RNA polymerase was purchased from Boehringer Mannheim at 0.4 U/μL concentration. Applicant used the commercial buffer supplied with the enzyme and 0.2 μCi alpha-^32P NTP in a 50 μL reaction with nucleotides triphosphates at 2 mM each. The template was a double-stranded PCR fragment, which was used in previous screens. Reactions were carried out at 37° C. for 1 hour. Ten μL of the sample was run on a 7.5% analytical PAGE and bands were quantitated using a Phosphorlmager.

[2] = biological target: T2, Y639F mutant T7 polymerase (Escherichia phage T7, UniProt P00573, Y639F); type: biochemical, bacteriophage T7
[3] = biological target: T2, Y639F mutant T7 polymerase; type: biochemical, bacteriophage T7; remark: listed apart in the source
BT-474 xenografts = conditions: combination study, dose not given; cited from earlier work
[4] = high-risk patients; cited from earlier work
[5] = COND# 1: 20 mM MgCl2, 10% methanol, 1 mM LiCl, no PEG, 25° C.
[6] = COND# 2: 20 mM MgCl2, 10% methanol, 1 mM LiCl, 4% PEG, 25° C.
[7] = COND# 3: 12 mM MgCl2, 4% PEG, 25° C.
[8] = COND# 4: 12 mM MgCl2, 10% methanol, 4% PEG, 25° C.
[9] = COND# 5: 12 mM MgCl2, 1 mM LiCl, 4% PEG, 25° C.
[10] = COND# 6: 12 mM MgCl2, 10% methanol, 1 mM LiCl, 4% PEG, 25° C.
[11] = COND# 7: 20 mM MgCl2, 10% methanol, 1 mM LiCl, no PEG, 37° C.
[12] = COND# 8: 20 mM MgCl2, 10% methanol, 1 mM LiCl, 4% PEG, 37° C.
[13] = COND# 9: 12 mM MgCl2, 4% PEG, 37° C.
[14] = COND# 10: 12 mM MgCl2, 10% methanol, 4% PEG, 37° C.
[15] = COND# 11: 12 mM MgCl2, 1 mM LiCl, 4% PEG, 37° C.
[16] = COND# 12: 12 mM MgCl2, 10% methanol, 1 mM LiCl, 4% PEG, 37° C.
[17] = wild type T7 polymerase, commercial buffer, 37° C., 1 hour, label GTP
[18] = together with 2′-his-UTP, rATP and rGTP, condition number 9
[19] = together with rUTP, condition number 9
[20] = together with 2′-his-UTP and 2′-amino-CTP, same buffer (condition 9)
[21] = together with rUTP and rCTP, same buffer (condition 9)
[22] = wild type T7 polymerase, commercial buffer, 37° C., 1 hour, label ATP

T1 sequence (P00573 whole entry): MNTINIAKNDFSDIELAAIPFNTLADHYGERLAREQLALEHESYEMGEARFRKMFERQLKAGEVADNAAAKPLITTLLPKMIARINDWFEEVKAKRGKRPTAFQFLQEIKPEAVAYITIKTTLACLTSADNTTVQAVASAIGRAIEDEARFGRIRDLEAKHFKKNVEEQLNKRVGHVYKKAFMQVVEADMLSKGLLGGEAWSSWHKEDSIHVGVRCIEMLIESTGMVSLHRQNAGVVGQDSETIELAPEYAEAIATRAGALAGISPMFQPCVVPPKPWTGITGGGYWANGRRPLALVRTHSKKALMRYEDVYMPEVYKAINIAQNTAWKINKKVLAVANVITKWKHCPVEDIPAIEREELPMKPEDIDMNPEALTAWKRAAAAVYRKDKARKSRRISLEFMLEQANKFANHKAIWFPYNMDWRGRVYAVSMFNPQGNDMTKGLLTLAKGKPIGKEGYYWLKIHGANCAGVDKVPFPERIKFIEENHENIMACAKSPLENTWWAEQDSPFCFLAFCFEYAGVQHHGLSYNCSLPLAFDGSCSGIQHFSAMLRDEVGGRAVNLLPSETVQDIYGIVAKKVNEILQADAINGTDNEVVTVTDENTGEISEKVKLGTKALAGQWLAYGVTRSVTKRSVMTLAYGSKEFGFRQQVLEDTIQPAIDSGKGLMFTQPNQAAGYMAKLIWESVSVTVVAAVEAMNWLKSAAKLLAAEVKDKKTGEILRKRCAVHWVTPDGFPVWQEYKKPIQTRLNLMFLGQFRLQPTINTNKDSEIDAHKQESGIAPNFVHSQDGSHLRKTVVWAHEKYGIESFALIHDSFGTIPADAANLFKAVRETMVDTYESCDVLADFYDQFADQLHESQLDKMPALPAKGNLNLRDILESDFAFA
T2 sequence (P00573 whole entry Y639F, looked up): as the sequence (P00573 whole entry) above, with Y639F counted along it

With 2′-F—GTP the “% ribo control” value [1] was 4%.

For 2′-dGTP, the “% ribo control” value [1] was 3%.

In the case of 2′-deoxy-2′-amino-CTP [2′-NH2—CTP], the “full-length transcript, percent compared to all-rNTP control” value (“full-length transcript, percent” for short) [2, 5] is reported as 11%, the “full-length transcript, percent” value [2, 6] is reported as 37% and the “full-length transcript, percent” value [2, 7] is reported as 45%. The “full-length transcript, percent” value [2, 8] was 64%, the “full-length transcript, percent” value [2, 9] was 25% and the “full-length transcript, percent” value [2, 10] was 70%. For the same compound, the “full-length transcript, percent” value [2, 11] was 26%, the “full-length transcript, percent” value [2, 12] was 54% and the “full-length transcript, percent” value [2, 13] was 292%. The “full-length transcript, percent” value [2, 14] was 264%, the “full-length transcript, percent” value [2, 15] was 109% and the “full-length transcript, percent” value [2, 16] was 244%. For the same compound, the “% ribo control” value [1, 17] was 59%, the “percentage of incorporation compared to the all-RNA control” value (“percentage of incorporation” below) [3, 18] was 9.5* % and the “percentage of incorporation” value [3, 19] was 232.7%.

In the case of 2′-deoxy-2′-amino-UTP [2′-NH2—UTP], the “% ribo control” value [1] is reported as 39%.

In the case of `Nc1ncnc2c1ncn2[C@@H]1O[C@H](COP(=O)(O)OP(=O)(O)OP(=O)(O)O)[C@@H](O)[C@H]1F` [2′-F—ATP, 2′-deoxy-2′-fluoro-adenine triphosphate], the “full-length transcript, percent” value [2, 5] is reported as 227%, the “full-length transcript, percent” value [2, 6] is reported as 252% and the “full-length transcript, percent” value [2, 7] is reported as 98%. For the same compound, the “full-length transcript, percent” value [2, 8] was 103%, the “full-length transcript, percent” value [2, 9] was 100% and the “full-length transcript, percent” value [2, 10] was 116%. For the same compound, the “full-length transcript, percent” value [2, 11] was 288%, the “full-length transcript, percent” value [2, 12] was 278% and the “full-length transcript, percent” value [2, 13] was 471%. The “full-length transcript, percent” value [2, 14] was 198%, the “full-length transcript, percent” value [2, 15] was 317% and the “full-length transcript, percent” value [2, 16] was 185%. For the same compound, the “percentage of incorporation” value [3, 20] was 4% and the “percentage of incorporation” value [3, 21] was 222.6%.

In the case of `O=c1ccn([C@@H]2O[C@H](COP(=O)(O)OP(=O)(O)OP(=O)(O)O)[C@@H](O)[C@H]2F)c(=O)[nH]1` [2′-F—UTP, 2′-deoxy-2′-fluoro-uridine triphosphate], the “full-length transcript, percent” value [2] is reported as 100% and the activity at 2000 µM ([1]; 1 h) is reported as 100%.

With `Nc1nc(N)c2ncn([C@@H]3O[C@H](CO)C(O)C3N)c2n1` (stereo partly drawn) [2′-NH2—DAP, 2′-deoxy-2′amino-2,6-diaminopurine riboside] the “full-length transcript, percent” value [2] was 0% and 1% and the “percentage of incorporation” value [3] was 8.9* % and 9.6%.

With `CSCO[C@@H]1[C@H](O)[C@@H](COP(=O)(O)OP(=O)(O)OP(=O)(O)O)O[C@H]1n1ccc(=O)[nH]c1=O` [2′-O-MTM-UTP, 2′-O-methylthiomethyl-uridine-5 ′-triphosphate] the activity at 2000 µM [1, 22] was 64%.

For `CSCO[C@@H]1[C@H](O)[C@@H](CO)O[C@H]1n1cnc2c(N)ncnc21` [2′-O—MTM—ATP, 2′-O-methylthiomethyl adenosine], the “full-length transcript, percent” value [2] was 0% and 1% and the activity at 2000 µM [1, 17] was 1%.

For `CSCO[C@@H]1[C@H](O)[C@@H](CO)O[C@H]1n1ccc(N)nc1=O` [2′-O—MTM—CTP, 2′-O-methylthiomethyl cytidine], the “full-length transcript, percent” value [2] was 2% and 4% and 5% and 3% and 1% and the “percentage of incorporation” value [3] was 5.9% and 5.1%.

In the case of `CSCO[C@@H]1[C@H](O)[C@@H](CO)O[C@H]1n1cnc2c(=O)[nH]c(N)nc21` [2′-O—MTM—GTP, 2′-O-methylthiomethyl guanosine], the “full-length transcript, percent” value [2] is reported as 6% and 3% and 1% and 4% and 2% and 0% and the activity at 2000 µM [1, 22] is reported as 3%.

With `CO[C@@H]1[C@H](O)[C@@H](COP(=O)(O)OP(=O)(O)OP(=O)(O)O)O[C@H]1n1cnc2c(N)ncnc21` [2′-O—Me—ATP] the “full-length transcript, percent” value [2] was 0% and 2% and 1%.

For `COC1C(O)[C@@H](CO)O[C@H]1n1cnc2c(N)nc(N)nc21` (stereo partly drawn) [2′-O—Me—DAP, 2′-O-methyl-2,6-diaminopurine riboside], the “full-length transcript, percent” value [2] was 4% and 5% and 3% and the “percentage of incorporation” value [3] was 1.9% and 5.7%.

With `CO[C@@H]1[C@H](O)[C@@H](COP(=O)(O)OP(=O)(O)OP(=O)(O)O)O[C@H]1n1cnc2c(=O)[nH]c(N)nc21` [2′-O—Me—GTP, 2′-O-methyl-guanosine-5′-Triphosphate] the “full-length transcript, percent” value [2] was 4% and 5% and 3% and 2% and the activity at 2000 µM ([1]; 1 h) was 3%.

In the case of `NO[C@@H]1[C@H](O)[C@@H](CO)O[C@H]1n1ccc(=O)[nH]c1=O` [2′-O—NH2—UTP, 2′-O-amino-uridine], the activity at 2000 µM [1, 22] is reported as 1%.

For `Nc1ncnc2c1ncn2[C@H]1C[C@H](O)[C@@H](COP(=O)(O)OP(=O)(O)OP(=O)(O)O)O1` [2′-dATP], the “full-length transcript, percent” value [2, 5] was 9%, the “full-length transcript, percent” value [2, 6] was 3% and the “full-length transcript, percent” value [2, 7] was 19%. The “full-length transcript, percent” value [2, 8] was 23%, the “full-length transcript, percent” value [2, 9] was 9% and the “full-length transcript, percent” value [2, 10] was 24%. For the same compound, the “full-length transcript, percent” value [2, 11] was 6%, the “full-length transcript, percent” value [2, 12] was 3% and the “full-length transcript, percent” value [2, 13] was 84%. The “full-length transcript, percent” value [2, 14] was 70%, the “full-length transcript, percent” value [2, 15] was 28% and the “full-length transcript, percent” value [2, 16] was 51%. For the same compound, the “percentage of incorporation” value [3, 20] was 2.3% and the “percentage of incorporation” value [3, 21] was 146.3%.

Work on `NCCC(=O)N[C@@H]1[C@H](O)[C@@H](CO)O[C@H]1n1ccc(=O)[nH]c1=O` [2′-β NH2-ala-UTP, 2′-(N-β-alanyl)amino-2′-deoxy uridine] yielded an activity at 2000 µM [1, 22] of 3%.

For `COC1C(O)[C@@H](CO)O[C@H]1n1cc(CCCN)c(=O)[nH]c1=O` (stereo partly drawn) [5-(3-aminopropyl)-2′-O-methyl uridine], the “full-length transcript, percent” value [2] was 4% and 10% and the activity at 2000 µM [1, 17] was 0%.

With `Nc1ncnc2c1ncn2[C@@H]1O[C@H](COP(=O)(O)OP(=O)(O)OP(=O)(O)O)[C@@H](O)[C@H]1O` [ATP] the “percentage of incorporation” value [3, 20] was 15.7% and the “percentage of incorporation” value [3, 21] was 100%.

With `Nc1ccn([C@@H]2O[C@H](COP(=O)(O)OP(=O)(O)OP(=O)(O)O)[C@@H](O)[C@H]2O)c(=O)n1` [CTP] the “percentage of incorporation” value [3, 18] was 16.1% and the “percentage of incorporation” value [3, 19] was 100%.

For `CC(N)C(=O)NC1C(O)[C@@H](CO)O[C@H]1n1ccc(=O)[nH]c1=O` (stereo partly drawn) [ala-2′-NH2—UTP, 2′-(N-alanyl) amino-2′-deoxy-uridine], the activity at 2000 µM [1, 22] was 2%.

In the case of `CC(=O)O[C@H]1C(=O)[C@@]2(C)[C@H]([C@H](OC(=O)c3ccccc3)[C@]3(O)C[C@H](OC(=O)[C@H](O)[C@@H](NC(=O)c4ccccc4)c4ccccc4)C(C)=C1C3(C)C)[C@]1(OC(C)=O)CO[C@@H]1C[C@@H]2O` [paclitaxel], the “inhibition of tumor growth” value (BT-474 xenografts) is given as 35%.

For `NC(Cc1ccccc1)C(=O)NC1C(O)[C@@H](CO)O[C@H]1n1ccc(=O)[nH]c1=O` (stereo partly drawn) [phe-2′-NH2—UTP, 2′-(N-phenylalanyl)amino-2′-deoxy-uridine], the “full-length transcript, percent” value [2] was 8% and 6% and 10% and 12% and 7% and 4% and the activity at 2000 µM [1, 22] was 1%.

For `CC/C(=C(\c1ccccc1)c1ccc(OCCN(C)C)cc1)c1ccccc1` [tamoxifen], the “reduction of breast cancer incidence” value [4] is given as 49%.
